According to patent US20060234944A1, “Beta-secretase inhibitors and methods of use” (Oklahoma Medical Reseach Foundation, priority 2001, published 2006):

Legend:
[1] = molecular target: T1, memapsin 2 (Homo sapiens, UniProt P56817); assay: Inhibition of memapsin 2 cleavage of fluorogenic substrate FS-2 (Ki, Ki apparent, Vi/Vo, % inhibition); format: biochemical; conditions: for Ki: Table 1, apparent Ki in presence of substrate FS-2, N.I. = no inhibition, read-out: Ki app; for % Inh (M1/M2): Table 9, ratio of % inhibition memapsin 1 / memapsin 2, 1 or less = greater inhibition of memapsin 2
T1 construct: made in house; host or cells: E. coli
Method: Ki is the inhibition equilibrium constant which indicates the ability of compounds to inhibit the β-secretase activity of memapsin 2 and memapsin 1. […] The K1 value is independent of the substrate, and converted from Ki apparent.
The Vi/Vo values depicted in Table 1 were determined at conditions under which the enzyme and inhibitor concentrations were equal (e.g., about 80 nM, 100 nM).
The relationship of Ki (independent of substrate concentration) to Kiapp is a function of substrate concentration in the assay and the Km for cleavage of the substrate by either memapsin 1 or memapsin 2 by the relationship: Kiapp=Ki(1+[S]/Km).
Ki is the inhibition equilibrium constant which indicates the ability of compounds to inhibit the β-secretase activity of memapsin 2 and memapsin 1. […] The Ki value is independent of the substrate, and converted from Ki apparent.
An aliquot of the inhibitor of known concentration in DMSO was diluted into 1.8 ml 0.1 M NaOAc, pH 4.0. DMSO and added to a final concentration of 10% (v/v), and memapsin 2 (final concentration of 80 nM), followed by a 20 minute equilibration at 37° C. Compounds were evaluated for the ability to inhibit memapsin 1 and memapsin 2 at concentrations between about 10 nM and about 10 μm of inhibitor.
The relationship of Ki (independent of substrate concentration) to Kiapp is a function of substrate concentration in the assay and the Km for cleavage of the substrate by either memapsin 1 or memapsin 2 by the relationship: Kiapp=Ki (1+[S]/Km).

[2] = system: plasma Aβ40; assay: Inhibition of Aβ production in APP/F transgenic mouse model of Alzheimer's disease (plasma Aβ40 sandwich ELISA); format: in vivo, mice; conditions: for Reduction of plasma Aβ40 / Course of inhibition of plasma Aβ40 over a 24-h period: APP/F mice; for Reduction of plasma Aβ40: about 163 nanomoles i.p., within 30 minutes following injection; for Course of inhibition of plasma Aβ40 over a 24-h period: single i.p. injection; for Blood brain barrier penetration in transgenic mice: concluded from reduction of plasma Aβ
Method: Compounds MMI-138, MMI-165, and MMI-185 were synthesized as described above. Compounds were dissolved in 1 ml of dimethyl sulfoxide (DMSO) to a final concentration of about 1 mg/ml for MMI-165 and MMI-185, and about 10 mg/ml for MMI-138. […] Inhibitors were diluted into PBS or H2O immediately prior to injection, as described below. Inhibition constants were determined by methods described by Ermolieff, et al (Biochem. 39:12450-12456 (2000), the teachings of which are incorporated hereby in their entirety).
The tg2576 strain of mice was obtained from Taconic (Germantown, N.Y.). The APP/F strain of mice were obtained by mating the tg2576 mice with the FVB/N strain. To determine presence of the Swedish APP gene in APP/F mice, the DNA from mice was isolated according to the Qiagen Dneasy™ Tissue Kit. PCR (Qiagen kit and protocol) was used to amplify the fragment of DNA corresponding to the human Swedish APP gene. The following primers were used: […]
At the age of three months, animals of the Alzheimer's disease mouse model APP/F were injected intraperitoneally (i.p.) with about 163 nanomoles of either compounds MMI-138 (molecular weight 674 g/mole; 110 μg per animal, n=2), MMI-165 (molecular weight 626 g/mole; 102 μg per animal, n—2), or MMI-185 (molecular weight 686; 112 μg per animal, n—2).
Heparinized capillary tubes collected blood samples from anesthetized animals from either the retro-orbital sinus or from the saphenous vein at specified intervals following injection. The blood samples were transferred to sterile 1.5 mL microcentrifuge tubes, centrifuged at 5,100 RPM for 10 minutes to recover the plasma (supernatant), and stored at −70° C. until analysis for the Aβ40 by Enzyme Linked-Immuno-Sorbent Assay (ELISA).
A sandwich ELISA (BioSource International, Camarillo, Calif.) was used to determine the levels of Aβ40 in plasma samples. The ELISA utilizes a primary antibody specific for human Aβ for the immobilization of the amino-terminus and a detection antibody specific for the carboxy-terminal amino acids of Aβ40. A conjugated secondary antibody was used to detect the ternary complex, using a stabilized chromogen substrate, quantifiable following addition of 1 M HCl, with the optical densities measured at 450 nm. The procedures were followed according to the BioSource protocol. Optical densities were converted to pg/ml quantities of Aβ40 using a linear regression of the optical densities of standards obtained from the commercial kit, to their known concentrations.

T1 sequence (P56817 41-454): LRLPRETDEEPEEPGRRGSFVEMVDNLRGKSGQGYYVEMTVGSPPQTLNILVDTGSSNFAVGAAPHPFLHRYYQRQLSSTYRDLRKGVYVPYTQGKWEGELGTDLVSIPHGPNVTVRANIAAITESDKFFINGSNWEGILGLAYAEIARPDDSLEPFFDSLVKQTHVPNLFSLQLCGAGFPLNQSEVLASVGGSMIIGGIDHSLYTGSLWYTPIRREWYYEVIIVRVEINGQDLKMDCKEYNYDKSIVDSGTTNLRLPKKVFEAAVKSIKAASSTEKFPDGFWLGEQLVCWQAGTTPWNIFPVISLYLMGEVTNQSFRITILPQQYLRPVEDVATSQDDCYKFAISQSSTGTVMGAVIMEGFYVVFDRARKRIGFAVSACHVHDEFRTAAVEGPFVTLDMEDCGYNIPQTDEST

Ki [1] [µM] | % Inh (M1/M2) [1] | SMILES | further results
3740 |  | CC(C)C[C@H](NC(=O)OC(C)(C)C)[C@@H](O)C[C@@H](C)C(=O)N[C@@H](C)C(=O)NCc1ccccc1 [MMI-001] | 
431 |  | CSCC[C@H](NC(=O)[C@H](C)NC(=O)[C@H](C)C[C@H](O)[C@H](CC(C)C)NC(=O)OC(C)(C)C)C(=O)NCc1ccccc1 [MMI-002] | 
2620 |  | CC(C)C[C@H](NC(=O)OC(C)(C)C)[C@@H](O)C[C@@H](C)C(=O)N[C@@H](C)C(=O)N[C@@H](CCS(C)(=O)=O)C(=O)NCc1ccccc1 [MMI-003] | 
150 |  | CSCC[C@H](NC(=O)[C@@H](NC(=O)OC(C)(C)C)C(C)C)C(=O)N[C@@H](CC(C)C)[C@@H](O)C[C@@H](C)C(=O)N[C@H]1c2ccccc2C[C@H]1O [MMI-046] | 
111 |  | CC(C)C[C@H](NC(=O)[C@H](CCS(C)(=O)=O)NC(=O)[C@@H](NC(=O)OC(C)(C)C)C(C)C)[C@@H](O)C[C@@H](C)C(=O)N[C@H]1c2ccccc2C[C@H]1O [MMI-047] | 
198 |  | CC(C)C[C@H](NC(=O)[C@H](CCO)NC(=O)c1cnc2ccccc2c1)[C@@H](O)C[C@@H](C)C(=O)N[C@H](C(=O)N[C@H]1c2ccccc2C[C@H]1O)C(C)C [MMI-049] | 
146 |  | CCC(C)[C@H](NC(=O)[C@H](C)C[C@H](O)[C@H](CC(C)C)NC(=O)[C@H](CCO)NC(=O)c1cnc2ccccc2c1)C(=O)N[C@H]1c2ccccc2C[C@H]1O (stereo partly shown) [MMI-050] | 
469 |  | CC(C)C[C@H](NC(=O)[C@H](CCS(C)(=O)=O)NC(=O)[C@@H](NC(=O)OC(C)(C)C)C(C)C)[C@@H](O)C[C@@H](C)C(=O)N[C@@H]1c2ccccc2C[C@@H]1O [MMI-054] | 
631 |  | CSCC[C@H](NC(=O)[C@@H](NC(=O)OC(C)(C)C)C(C)C)C(=O)N[C@@H](CC(C)C)[C@@H](O)C[C@@H](C)C(=O)N[C@H]1CCCC[C@@H]1O [MMI-055] | 
408 |  | CC(C)C[C@H](NC(=O)[C@H](CCS(C)(=O)=O)NC(=O)[C@@H](NC(=O)OC(C)(C)C)C(C)C)[C@@H](O)C[C@@H](C)C(=O)N[C@@H]1CCCC[C@@H]1O [MMI-058] | 
101 |  | CC(C)C[C@H](NC(=O)[C@H](CCS(C)(=O)=O)NC(=O)[C@@H](NC(=O)OC(C)(C)C)C(C)C)[C@@H](O)C[C@@H](C)C(=O)N[C@@H]1CCCC[C@@H]1O [MMI-060] | 
15500 |  | CSCC[C@H](NC(=O)[C@@H](NC(=O)OC(C)(C)C)C(C)C)C(=O)N[C@@H](CC(C)C)[C@@H](O)CN(C)C(=O)[C@H](NC(=O)OCc1ccccc1)C(C)C [MMI-061] | 
 | 0.73 | CC(C)C[C@H](NC(=O)[C@H](CCS(C)(=O)=O)NC(=O)[C@@H](NC(=O)OC(C)(C)C)C(C)C)[C@@H](O)C[C@@H](C)C(=O)N[C@@H](C(=O)NCc1ccccc1)[C@@H](C)O [MMI-073] | 
 |  | CSCC[C@H](NC(=O)[C@@H](NC(=O)OC(C)(C)C)C(C)C)C(=O)N[C@@H](CC(C)C)[C@@H](O)C[C@@H](CO)C(=O)N[C@H](C(=O)NCc1ccccc1)C(C)C [MMI-078] | % Inh (M1/M2) ([1]; listed as 78): 0.76
 |  | Cc1c(O)cccc1C(=O)N[C@@H](C(C)C)[C@@H](O)N[C@@H](CCS(C)(=O)=O)C(=O)N[C@@H](CC(C)C)[C@@H](O)C[C@@H](C)C(=O)N[C@@H](CC(C)C)C(=O)NCc1ccccc1 [MMI-122] | Vi/Vo ([1]; ratio of initial cleavage velocities of FS-2 with/without compound, enzyme and inhibitor concentrations equal (e.g., about 80 nM, 100 nM)): 1.17
110 |  | CSCC[C@H](NC(=O)[C@@H](NC(=O)OC(C)(C)C)C(C)C)C(=O)N[C@@H](CC(C)C)[C@@H](O)C[C@@H](C)C(=O)N[C@@H](C(C)C)C1CCCCO1 (stereo partly shown) [MMI-130] | 
 | 1.30 | CSCC[C@H](NC(=O)[C@@H](NC(=O)OC(C)(C)C)C(C)C)C(=O)N[C@@H](CC(C)C)[C@@H](O)C[C@@H](CO)C(=O)N[C@H](C(=O)NCc1ccccc1)C(C)C [MMI-132] | 
 | 0.10 | CSCC[C@H](NC(=O)OCn1nc(C)cc1C)C(=O)N[C@@H](CC(C)C)[C@@H](O)C[C@@H](C)C(=O)N[C@H](C(=O)NCc1ccccc1)C(C)C [MMI-138] | Reduction of plasma Aβ40 [2]: 57%; Course of inhibition of plasma Aβ40 over a 24-h period [2]: remained nearly constant; Blood brain barrier penetration in transgenic mice [2]: penetrated the blood brain barrier; Ki for memapsin 2 lower than Ki for memapsin 1 (selectivity) ([1]; memapsin 2 relative to memapsin 1, stated in text): about 60 fold
 | 0.47 | CSCC[C@H](NC(=O)OCn1nc(C)cc1C)C(=O)N[C@@H](CC(C)C)[C@@H](O)C[C@@H](C)C(=O)N[C@H](C(=O)NCC(C)C)C(C)C [MMI-156] | 
 | 0.45 | CSCC[C@H](NC(=O)OCn1nc(C)cc1C)C(=O)N[C@@H](CC(C)C)[C@@H](O)C[C@@H](C)C(=O)N[C@H](C(=O)NC(C)C)C(C)C [MMI-165] | Reduction of plasma Aβ40 [2]: 46%; Course of inhibition of plasma Aβ40 over a 24-h period [2]: remained nearly constant; Blood brain barrier penetration in transgenic mice [2]: penetrated the blood brain barrier
 | 0.18 | CCCCNC(=O)[C@@H](NC(=O)[C@H](C)C[C@H](O)[C@H](CC(C)C)NC(=O)[C@H](CCSC)NC(=O)OCn1nc(C)cc1C)C(C)C [MMI-167] | 
 | 0.18 | CSCC[C@H](NC(=O)OCn1nc(C)cc1C)C(=O)N[C@@H](CC(C)C)[C@@H](O)C[C@@H](C)C(=O)N[C@@H](CC(C)C)C(=O)NC(CF)CF [MMI-171] | 
 | 0 | CSCC[C@H](NC(=O)OCCn1nc(C)cc1C)C(=O)N[C@@H](CC(C)C)[C@@H](O)C[C@@H](C)C(=O)N[C@@H](CC(C)C)C(=O)NCC(C)C [MMI-176] | 
 | 0 | CSCC[C@H](NC(=O)OCCn1nc(C(C)C)cc1C(C)C)C(=O)N[C@@H](CC(C)C)[C@@H](O)C[C@@H](C)C(=O)N[C@H](C(=O)NCC(C)C)C(C)C [MMI-180] | 
 | 0.19 | CSCC[C@H](NC(=O)OCn1nc(C)cc1C)C(=O)N[C@@H](CC(C)C)[C@@H](O)C[C@]1(C)CCN([C@@H](CC(C)C)C(=O)NCC(C)C)C1=O [MMI-181] | 
 | 0 | CCCCNC(=O)[C@H](C(C)C)N1CC[C@@](C)(C[C@H](O)[C@H](CC(C)C)NC(=O)[C@H](CCSC)NC(=O)OCn2nc(C)cc2C)C1=O [MMI-182] | 
 |  | COCC[C@H](NC(=O)[C@H](CC(C)C)NC(=O)OC(C)(C)C)C(=O)N[C@@H](CC(C)C)[C@@H](O)C[C@@H](C)C(=O)N[C@@H](CC(C)C)C(=O)NC(C)C [MMI-185] | Reduction of plasma Aβ40 [2]: 63%; Course of inhibition of plasma Aβ40 over a 24-h period [2]: appeared to return to initial level; Blood brain barrier penetration in transgenic mice [2]: penetrated the blood brain barrier

SMILES | Ki [1] [µM] | % Inh (M1/M2) [1] | further results
Cc1cc(C)n(COC(=O)N[C@@H](CCS(C)(=O)=O)C(=O)N[C@@H](CC(C)C)[C@@H](O)C[C@@H](C)C(=O)N[C@H](C(=O)NCc2ccccc2)C(C)C)n1 [MMI-139] |  | 0 | 
